From patent US4748251A, “7-n-aminomethylenemitomycin derivative” (priority 1985, dated 1988)
Converted amounts (≈) assume the structure as drawn. Where two headings read alike, the source gives them in different places.

Key:
[1] = test system: Staphylococcus aureus ATCC 6538P; test: Antibacterial activity, agar dilution method, pH 7.0 (SA); type: cell-based; settings: ATCC6538P
Experimental: (§1) Antibacterial activities of some compounds covered by the present invention against various bacteria are shown by the minimum growth inhibitory concentration (μg/ml) in Table 1. The minimum growth inhibitory concentration was measured at pH 7.0 according to the agar dilution method. In the table, bacteria are indicated by the following letters.
SA: Staphylococcus aureus ATCC 6538P

[2] = test system: Klebsiella pneumoniae ATCC 10031; test: microbe, parasite or virus in culture; type: cell-based; settings: ATCC10031, pH 7, read-out: minimum growth inhibitory concentration
Experimental: The minimum growth inhibitory concentration was measured at pH 7.0 according to the agar dilution method. In the table, bacteria are indicated by the following letters.
KP: Klebsiella pneumoniae ATCC 10031

[3] = test system: Shigella sonnei ATCC 9290; test: Antibacterial activity, agar dilution method, pH 7.0 (SS); type: cell-based
Experimental: as §1
SS: Shigella sonnei ATCC 9290

[4] = test system: Proteus vulgalis ATCC 6897; test: Antibacterial activity, agar dilution method, pH 7.0 (PV); type: cell-based
Experimental: as §1
PV: Proteus vulgalis ATCC 6897

[5] = test system: Streptococcus faecalis ATCC 10541; test: Antibacterial activity, agar dilution method, pH 7.0 (SF); type: cell-based; settings: Enterococcus faecalis
Experimental: as §1
SF: Streptococcus faecalis ATCC 10541

[6] = test system: Bacillus subtilis 10707; test: Antibacterial activity, agar dilution method, pH 7.0 (BS); type: cell-based
Experimental: as §1
BS: Bacillus subtilis 10707

[7] = Acute toxicity in mice; design: species or system mouse (ddY strain); settings: mouse, in vivo, ip; intraperitoneally once, ddY mice, 14 days observation, Beherns Kaerber's method
Experimental: (§2) Taking some of the compounds falling within the present invention as examples, anti-tumor activity (ED50) against Sarcoma 180 solid tumor and acute toxicity (LD50) as well as effect on peripheral leucocytes number (WBC4000) are shown in Table 2.
Each animal of the test group consisting of 5 ddY mice was administered intraperitoneally once with a test compound. […] The LD50 was determined by Beherns Kaerber's method.

[8] = test system: Sarcoma 180 solid tumor; test: Anti-tumor activity against Sarcoma 180 solid tumor in mice; type: in vivo, mouse (ddY strain); settings: Mus musculus, Sarcoma-180, ip, 168 h; dose reducing tumor volume to 50% of control; intraperitoneal 24 hours after implantation; tumor measured 7 days after implantation
Text: as §2
(1) Effect against Sarcoma 180 solid tumor cells:
5×10^6 cells of Sarcoma 180 solid tumor were implanted into ddY mice. 7 days later, ascites cells were sampled. The cells were washed once with a sterilized physiological solution of sodium chloride and were used to prepare a cell supspension containing 5×10^7 cells per ml. On each occasion, 0.1 ml of the cell suspension was subcutaneously implanted into the right axilla of a male mouse (ddY strain; body weight 20±2 g). The test compound was dissolved in a physiological solution of sodium chloride with or without addition of Tween 80 and was administered intraperitoneally into each mouse of a group consisting of 5 mice at a dose of 0.1-0.2 ml, 24 hours after the implantation of the tumor cells.
The anti-tumor activity was determined in the following manner. 7 days after the implantation, the major axis (a) and the minor axis (b) of the tumor were measured to calculate a value of "a×b^2 /2" which corresponds to the volume of the tumor. The anti-tumor activity was expressed by the ratio of the volume of the tumors (T) of the group of animals administered with the test compound to the corresponding volume of tumors (C) of the untreated animals.
(2) Determination of ED50 :
On graph paper, T/C (the ratio of the volume of tumors of treated animals to that of control animals) was indicated by an arithmetic scale on the longitudinal axis and the administered amount of the test compound was indicated by a logarithmic scale on the lateral axis. The relationship between the dose and T/C was shown by a straight line determined by the method of least squares, from which a dose corresponding to T/C of 0.5 was obtained.

[9] = test system: peripheral leucocytes; test: Effect on the peripheral leucocytes number in tumor-carrying mice; type: in vivo, mouse (ddY strain); settings: dose which reduces peripheral leucocytes number to 4000/mm^3; intraperitoneal, blood 4 days later
Text: as §2
WBC4000 indicates the dose of a substance which reduces the peripheral leucocytes number to 4000/mm^3.
(4) Effect on the peripheral leucocytes number:
Sarcoma 180 solid tumor cells (5×10^6) were subcutaneously implanted into the right axilla of each mouse (body weight 20±2 g) of a group consisting of 5 male mice (ddY strain). 24 hours after implantation,a test compound was intraperitoneally administered to each animal. 4 days later, blood (each 0.02 ml) was collected from the suborbital plexus vein of each tumor-carrying animal. The collected sample of blood was dispersed in 9.98 ml of Cell-Kit Seven solution. One drop of saponin solution was added to the sample to dissolve erythrocytes and then a microcell counter was used to count the number of leucocytes. On graph paper, the number of leucocytes was indicated on the y-axis by an arithmetic scale and the dose of the test compound was indicated on the x-axis by a logarithmic scale. The relationship between the number of peripheral leucocytes and the dosage of the test compound was plotted and the dosage corresponding to 4000 peripheral leucocytes/mm^3 (about half the number of leucocytes of normal mice) was obtained. This value is denoted in Table 2 by WBC4000.

[10] = test system: leukemia P-388; test: Anti-tumor activity against leukemia P-388; type: in vivo, mouse (CDF1); settings: for ILS %: i.p. once, 33 days
Experimental: (§3) Ascites was sampled from the abdominal cavity of tumor-bearing mice (DBA/2) 7 days after transplantation of P-388 ascitic tumor. The number of the P-388 cells in the ascites was counted. A suspension of the tumor cells of 5×10^6 /ml was prepared using sterilized physiological saline, and 0.2 ml of the suspension (containing 1×10^6 cells) was intraperitoneally transplanted to CDF1 mice weighing 20 to 25 g. Twenty-four hours after the transplantation of the tumor, a test compound was intraperitoneally administered once to groups of the CDF1 mice, each group consisting of 6 mice. […] The effect of the compound was evaluated by a ratio of a mean survival days of the group treated with the compound to a mean survival days of the control group (untreated group) after 33 days of observation (Increased Life Span, ILS %).

[11] = test system: P-388 leukemia resistant to mitomycin C; test: Anti-tumor activity against P-388 leukemia resistant to mitomycin C; type: in vivo, mouse (CDF1); settings: for ILS %: i.p. once
Experimental: as §3

[12] = pH 7, read-out: minimum growth inhibitory concentration
[13] = ATCC9290, pH 7, read-out: minimum growth inhibitory concentration
[14] = ATCC10541, pH 7, read-out: minimum growth inhibitory concentration
[15] = Bacillus subtilis, 10707, pH 7, read-out: minimum growth inhibitory concentration

Row | Compound | MIC [1, 12] [µg/mL] | MIC [2] [µg/mL] | MIC [3, 13] [µg/mL] | MIC [4, 12] [µg/mL] | MIC [5, 14] [µg/mL] | MIC [6, 15] [µg/mL] | LD50 at 336 h [7] [mg/kg] | ED50 [8] [mg/kg] | WEC4000 [9] [mg/kg] | further results
1 | C=C1C2=C(C(=O)C(C)=C(N=CN(C)C)C2=O)N2C[C@@H]3N[C@@H]3[C@]12OC [Compound 2, 1a-Demethyl-7-N-dimethylaminoethylenemitomycin G] | 0.31 (≈ 0.944 µM) | 10 (≈ 30.5 µM) | 20 (≈ 60.9 µM) | 10 (≈ 30.5 µM) | 1.3 (≈ 3.96 µM) | 0.078 (≈ 0.238 µM) |  |  |  | 
2 | CO[C@@]12[C@H](COC(N)=O)C3=C(C(=O)C(C)=C(N)C3=O)N1C[C@@H]1N[C@@H]12 [MM-C, mitomycin C, reference compound] |  |  |  |  |  |  |  |  |  | MIC ([1]; SA, pH 7.0, agar dilution, read-out: minimum growth inhibitory concentration): 0.16 µg/mL (≈ 0.479 µM); MIC ([3]; ATCC9290, SS, pH 7.0, agar dilution, read-out: minimum growth inhibitory concentration): 2.5 µg/mL (≈ 7.48 µM); MIC ([4]; PV, pH 7.0, agar dilution, read-out: minimum growth inhibitory concentration): 0.08 µg/mL (≈ 0.239 µM); MIC ([5]; ATCC10541, SF, pH 7.0, agar dilution, read-out: minimum growth inhibitory concentration): 0.31 µg/mL (≈ 0.927 µM); MIC ([6]; Bacillus subtilis, 10707, BS, pH 7.0, agar dilution, read-out: minimum growth inhibitory concentration): 0.04 µg/mL (≈ 0.12 µM)
3 | CC1=C(N=CN(C)C)C(=O)C2=C(C1=O)N1C[C@H]3[C@H](N3C)[C@]1(O)[C@H]2COC(=O)N=CN(C)C (stereo partly shown) [Compound 3b, 7-N,N^10-bis(dimethylaminomethylene)mitomycin D] |  |  |  |  |  |  | 26.3 | 20.9 | 18.7 | 
4 | CC1=C(N=CN(C)C)C(=O)C2=C(C1=O)N1C[C@H]3[C@H](N3C)[C@]1(O)[C@H]2COC(N)=O (stereo partly shown) [Compound 3a, 7-N-Dimethylaminomethylenemitomycin D] | 10 (≈ 25.7 µM) | 2.5 (≈ 6.42 µM) | > 20 | 20 (≈ 51.4 µM) | 5 (≈ 12.8 µM) | 2.5 (≈ 6.42 µM) | 8.3 | 3.9 | 4.3 | maximum increased life span ([10]; P-388, Table 3, maximum over doses): 213%; ILS % ([10]; dose 0.25 mg/kg): 28%; ILS % ([10]; dose 0.5 mg/kg): 53%; ILS % ([10]; dose 1.0 mg/kg): 58%; ILS % ([10]; dose 2.0 mg/kg): 58%; ILS % ([10]; dose 4.0 mg/kg): 145%; ILS % ([10]; dose 6.0 mg/kg): 213%; ILS % ([10]; dose 8.0 mg/kg): 98%; anti-tumor activity against leukemia P-388 compared with Compound A ([10]; in words, versus Compound A): more excellent anti-tumor activity than Compound A; maximum increased life span ([11]; P-388 resistant to mitomycin C, Table 4, maximum over doses): 143%; ILS % ([11]; dose 1.0 mg/kg): 28%; ILS % ([11]; dose 2.0 mg/kg): 103%; ILS % ([11]; dose 4.0 mg/kg): 143%; ILS % ([11]; dose 6.0 mg/kg): 58%; ILS % ([11]; dose 8.0 mg/kg): 51%
5 | CO[C@]12[C@@H]3[C@H](CN1C1=C(C(=O)C(N=CN(C)C)=C(C)C1=O)[C@@H]2COC(=O)N=CN(C)C)N3C (stereo partly shown) [Compound 4b, 7-N,N^10-bis(dimethylaminomethylene)mitomycin E] | 10 (≈ 21.8 µM) | 40 (≈ 87.2 µM) |  |  | 5 (≈ 10.9 µM) | 2.5 (≈ 5.45 µM) |  |  |  | 
6 | CO[C@]12[C@@H]3[C@H](CN1C1=C(C(=O)C(N=CN(C)C)=C(C)C1=O)[C@@H]2COC(N)=O)N3C (stereo partly shown) [Compound 4a, 7-N-Dimethylaminomethylenemitomycin E] | 0.63 (≈ 1.56 µM) | 2.5 (≈ 6.2 µM) | 10 (≈ 24.8 µM) | 20 (≈ 49.6 µM) | 0.63 (≈ 1.56 µM) | 0.16 (≈ 0.397 µM) |  |  |  | 
7 | CC1=C(N=CN(C)C)C(=O)C2=C(C1=O)N1C[C@H]3[C@H](N3C)[C@]1(O)[C@@H]2COC(N)=O (stereo partly drawn) [Compound 6c, 9-Epi-7-N-dimethylaminomethylenemitomycin D] | 2.5 (≈ 6.42 µM) | 0.63 (≈ 1.62 µM) | 40 (≈ 103 µM) | 5 (≈ 12.8 µM) | 1.3 (≈ 3.34 µM) | 0.63 (≈ 1.62 µM) | 9.4 | 14 | 11.2 | 
8 | C=C1C2=C(C(=O)C(C)=C(N=CN(C)C)C2=O)N2C[C@H]3[C@H](N3C)[C@]12O (stereo partly shown) [Compound 1, 9a-O-Demethyl-7-N-dimethylaminomethylenemitomycin G] | 0.078 (≈ 0.238 µM) | 10 (≈ 30.5 µM) | 10 (≈ 30.5 µM) | 10 (≈ 30.5 µM) | 0.078 (≈ 0.238 µM) | 0.078 (≈ 0.238 µM) |  |  |  | ILS ([10]; dose 10 mg/kg, similar experiment): 83%
